ChEMBL document CHEMBL1151046, “Selective cyclooxygenase inhibitors: Novel 4-spiro 1,2-diarylcyclopentenes are potent and orally active cox-2 inhibitors” (Bioorg Med Chem Lett, 1995)

How the values were obtained:
physchem = settings: octanol/water
Rattus norvegicus [1] = organism: Rattus norvegicus; assay: animal or person; format: functional; settings: po
Rattus norvegicus [2] = organism: Rattus norvegicus; format: functional, Stomach
[3] = target: Prostaglandin G/H synthase 1 (Homo sapiens, UniProt P23219)
Rattus norvegicus [4] = organism: Rattus norvegicus; assay: animal or person; settings: po, read-out: Inhibition

Sequence of Prostaglandin G/H synthase 1 (P23219 whole entry): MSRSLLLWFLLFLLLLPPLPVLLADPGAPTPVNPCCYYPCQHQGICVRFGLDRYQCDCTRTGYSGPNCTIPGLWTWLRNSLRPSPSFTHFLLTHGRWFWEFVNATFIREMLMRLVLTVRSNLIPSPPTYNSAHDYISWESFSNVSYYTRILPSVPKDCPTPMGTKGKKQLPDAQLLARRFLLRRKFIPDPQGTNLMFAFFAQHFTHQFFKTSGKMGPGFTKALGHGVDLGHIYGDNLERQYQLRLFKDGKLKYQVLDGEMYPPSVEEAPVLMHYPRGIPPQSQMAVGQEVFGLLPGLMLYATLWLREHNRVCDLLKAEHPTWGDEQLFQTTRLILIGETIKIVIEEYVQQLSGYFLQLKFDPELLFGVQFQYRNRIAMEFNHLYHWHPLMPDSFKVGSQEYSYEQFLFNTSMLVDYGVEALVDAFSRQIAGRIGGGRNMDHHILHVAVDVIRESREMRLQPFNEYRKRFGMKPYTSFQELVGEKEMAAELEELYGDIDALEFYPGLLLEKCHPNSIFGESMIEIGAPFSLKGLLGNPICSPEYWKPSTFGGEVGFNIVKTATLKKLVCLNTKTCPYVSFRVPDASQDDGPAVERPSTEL

| logP (physchem) | SMILES | inhibition in vivo at 30 mg/kg (Rattus norvegicus [1]) [%] | other results |
| --- | --- | --- | --- |
| 4.1 | NS(=O)(=O)c1ccc(C2=C(c3ccc(F)cc3)CC3(CCC3)C2)cc1 | 37 | – |
| 4 | NS(=O)(=O)c1ccc(C2=C(c3ccc(F)cc3)CC3(CC3)C2)cc1 | 60 | Gastric lesions (Rattus norvegicus [2]): 10 |
| 5.4 | CS(=O)(=O)c1ccc(C2=C(c3ccc(F)cc3)CC3(CCCC3)C2)cc1 | – | – |
| – | CS(=O)(=O)c1ccc(C2=C(c3ccc(F)cc3)CC3(CCCCC3)C2)cc1 | – | IC50 [3]: > 100 µM |
| – | CC1(C)CC(c2ccc(F)cc2)=C(c2ccc(S(C)(=O)=O)cc2)C1 | – | inhibition in vivo at 30 mg/kg (Rattus norvegicus [4]): 50% |
| 4.9 | CS(=O)(=O)c1ccc(C2=C(c3ccc(F)cc3)CC3(CCC3)C2)cc1 | 23 | – |
| 4.5 | CS(=O)(=O)c1ccc(C2=C(c3ccc(F)cc3)CC3(CC3)C2)cc1 | 38 | IC50 [3]: 5.4 µM |
| – | COc1ccc2c(c1)c(CC(=O)O)c(C)n2C(=O)c1ccc(Cl)cc1 [INDOMETHACIN] | 66 | – |
| – | CS(=O)(=O)Nc1ccc([N+](=O)[O-])cc1OC1CCCCC1 [NS-398] | 60 | – |
